# Measured values taken from US20200121677A1, “SUBSTITUTED 6,7-DIHYDROPYRAZOLO[1,5-a]PYRAZINES AS NEGATIVE ALLOSTERIC MODULATORS OF MGLUR2 RECEPTORS” (Janssen Pharmaceutica NV, priority 2014, published 2020).
# Experiments:
# Male Wiga Wistar rats = test: Reversal of LY-404039-induced decrease of palpebral opening in apomorphine-challenged rats; type: in vivo, rat; settings: for ED50: Rattus norvegicus, rats, route PO (route cell empty for Co. 88 and 84), read-out: ED50 APO LY-404039 (Reversal of LY-404039-induced decrease of palpebral opening in apomorphine challenged rats)
# Description: 1) Reversal of LY-404039-Induced Decrease of Palpebral Opening in Apomorphine-Challenged Rats.
# Male Wiga Wistar rats (Crl:WI; Charles River Germany; 220±40 g) were housed under standard laboratory conditions (21±2° C.; 50-65% relative humidity; light-dark cycle set at 12 h; lights on at 6.00 h) and fasted overnight prior to the start of the experiments (tap water remained available ad libitum). During the test period, they were housed in individual cages. Palpebral opening was scored every 5 min over the first hour after injection of apomorphine (1.0 mg/kg, i.v.) in animals either pretreated or not pretreated with LY-404039 (2.5 mg/kg, s.c.) at 1 h prior to the apomorphine injection. The animals were also pretreated with test compound or solvent at a predefined interval before apomorphine challenge. The score system was: (5) exophthalmos, (4) wide open, (3) open for three-quarters, (2) half open, (1) open for one-quarter, (0) closed. The scores for palpebral opening were cumulated over the 60-min observation period.
# human mGlu2 receptor = human mGlu2 receptor (Homo sapiens, UniProt Q14416); test: [35S]GTPγS binding assay, mGluR2 negative allosteric modulation (membranes from CHO cells transfected with human mGlu2 receptor, glutamate ~EC80 60 μM); settings: for IC50: GTPγS - hmGluR2 anGT pIC50, membranes with human mGlu2 receptor; for IC50 / GTPγS - hmGluR2 anGT pIC50: glutamate ~EC80 (60 μM), pIC50 = -log IC50 (M); for Emax: read-out: GTPγS - hmGluR2 anGT Emax, relative maximal effect: maximal % inhibition relative to the control glutamate response; for GTPγS - hmGluR2 anGT pIC50: membranes with human mGlu2 receptor; for GTPγS - hmGluR2 anGT Emax: relative maximal effect: maximal % inhibition relative to the control glutamate response;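 on all read-outs here: membranes preincubated 30 min at 30 °C with compound plus glutamate, then [35S]GTPγS (0.1 nM) incorporation measured over another 30 min at 30 °C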
# Chain of human mGlu2 receptor (Q14416 19-872): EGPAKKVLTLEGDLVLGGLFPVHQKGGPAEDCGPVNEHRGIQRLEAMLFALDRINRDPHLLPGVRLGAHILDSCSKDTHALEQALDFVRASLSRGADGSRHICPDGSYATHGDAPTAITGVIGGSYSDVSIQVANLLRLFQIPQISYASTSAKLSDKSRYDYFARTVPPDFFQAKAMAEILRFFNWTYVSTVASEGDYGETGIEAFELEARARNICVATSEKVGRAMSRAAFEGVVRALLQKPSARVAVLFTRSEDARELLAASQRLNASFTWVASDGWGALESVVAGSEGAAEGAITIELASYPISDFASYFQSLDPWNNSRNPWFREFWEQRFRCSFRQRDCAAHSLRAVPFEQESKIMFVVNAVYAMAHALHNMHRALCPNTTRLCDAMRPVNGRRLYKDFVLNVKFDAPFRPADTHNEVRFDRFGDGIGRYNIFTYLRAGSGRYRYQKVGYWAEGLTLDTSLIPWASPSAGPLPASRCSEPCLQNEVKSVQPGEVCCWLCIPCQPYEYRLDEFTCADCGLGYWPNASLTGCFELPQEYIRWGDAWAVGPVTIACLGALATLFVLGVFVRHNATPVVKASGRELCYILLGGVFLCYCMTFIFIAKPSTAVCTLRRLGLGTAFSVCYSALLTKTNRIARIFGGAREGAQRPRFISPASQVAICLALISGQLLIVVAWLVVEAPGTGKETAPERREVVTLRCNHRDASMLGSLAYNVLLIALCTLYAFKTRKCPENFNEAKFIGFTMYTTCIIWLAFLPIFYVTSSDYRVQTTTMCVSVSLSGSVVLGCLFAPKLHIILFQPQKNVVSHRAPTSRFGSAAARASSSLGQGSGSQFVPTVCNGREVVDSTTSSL
# rats = test: Reversal of the effect of the mGluR2 PAM JNJ-42153605-induced inhibition of scopolamine-induced hyperlocomotion; type: in vivo, rat; settings: rats, route PO, criterion total distance >1500 cm; for ED50: Rattus norvegicus, read-out: ED50 SCOP JNJ-42153605 (Reversal of the effect of JNJ 42153605 on scopolamine-induced hyperlocomotion)
# Description: 2) Reversal of the Effect of the mGluR2 PAM JNJ-42153605-Induced Inhibition of Scopolamine-Induced Hyperlocomotion
# Motor activity was measured in microprocessor-based motor activity arenas (closed gray PVC cylinders with a height of 39 cm and a diameter of 31 cm). Each arena was placed on an infrared LED (8×8 LEDs) lit box (white PVC squared box; 40×40 cm^2; height 12.5 cm. An infrared-sensitive tube camera and a white light source were mounted to the ceiling above the observation chamber to track the animal. The total distance traveled (cm) was recorded and analyzed using the Noldus Ethovision XT Video Tracking System (Version 7.0.418; Noldus, Wageningen, The Netherlands). The intensity of the light within the activity cages (measured in the centre at the level of the floor) ranged between 4 and 8 LUX.
# The rats were pretreated with test compound or vehicle at 60 min before the start of the activity recordings and placed into individual cages. The rats were challenged with JNJ-42153605 (3-(cyclopropylmethyl)-7-(4-phenylpiperidin-1-yl)-8-(trifluoromethyl)[1,2,4]triazolo[4,3-a]pyridine; WO2010/130424; Cid et al. J. Med. Chem. 2012, 55, 8770-8789) (20 mg/kg, i.v.) 30 min before the start of the activity recording combined with scopolamine (0.16 mg/kg, i.v.) just before the start of the activity measurements. Immediately after the injection of scopolamine, the rats were placed into the activity monitors and total distance traveled over the first 30 min was measured.
# For reversal of the inhibitory effect of JNJ-42153605 on the scopolamine-induced hyperlocomotion, the following all-or-none criteria were adopted: (1) reversal: total distance >1500 cm.
# Wiga rats = test: Induction of mydriasis (pupil diameter, test 1 and test 2); type: in vivo, rat; settings: route PO, pupil diameter >25 units, maximum over 1, 2 or 3 h post-administration
# Description: 3) Induction of Mydriasis
# The pupil diameter of Wiga rats was measured with a microscopic micrometer (1 unit=1/24 mm). Criteria for drug-induced effects: pupil diameter >25 units for mydriasis (in controls: 1.9%) 1 h post-administration of the test compound (test 1) or 1, 2 or 3 h post-administration of the test compound (test 2, wherein the maximum pupil diameter over the full 3 h period is reported).
SMILES,"Palpebral opening score, Occurrence score > 26 (%) (Male Wiga Wistar rats; control animals, scores cumulated over 60 min after apomorphine 1.0 mg/kg i.v., LY-404039 2.5 mg/kg s.c. 1 h before apomorphine)",IC50 (human mGlu2 receptor) [M],Emax (human mGlu2 receptor) [%],melting point [°C],ED50 (rats) [mg/kg],ED50 (Male Wiga Wistar rats) [mg/kg],GTPγS - hmGluR2 anGT pIC50 (human mGlu2 receptor),GTPγS - hmGluR2 anGT Emax (human mGlu2 receptor) [%],ED50 SCOP JNJ-42153605 (Reversal of the effect of JNJ 42153605 on scopolamine-induced hyperlocomotion) (rats) [mg/kg],ED50 MYD Test 2 (Induction of mydriasis) (Wiga rats) [mg/kg]
"N[C@@]1(C(=O)O)CS(=O)(=O)[C@H]2[C@H](C(=O)O)[C@H]21 [LY-404039, reference compound]",3.2,–,–,–,–,–,–,–,–,–
C[C@H]1CN(c2ccc(C(F)(F)F)cc2)C(=O)c2c(C(=O)Nc3cncc(F)c3)cnn21 [compound 13],–,2.24e-09,110,196.7,0.32,0.32,–,–,–,–
Cc1ccncc1NC(=O)c1cnn2c1C(=O)N(c1ccc(C(F)(F)F)cc1)C[C@@H]2C [compound 14],–,2.45e-09,109,249.5,0.13,0.13,–,–,–,–
C[C@H]1CN(c2ccc(C(F)(F)F)c(F)c2)C(=O)c2c(C(=O)Nc3ccccn3)cnn21 [compound 20],–,1.07e-08,113,199.2,> 2.5,> 2.5,–,–,–,–
C[C@H]1CN(c2ccc(C(F)(F)F)c(F)c2)C(=O)c2c(C(=O)Nc3cccnc3)cnn21 [compound 21],–,–,–,–,–,–,8.72,108,0.32,7.9
C[C@H]1CN(c2ccc(Cl)c(Cl)c2)C(=O)c2c(C(=O)Nc3ccccn3)cnn21 [compound 25],–,3.09e-09,112,258.4,> 2.5,> 10,–,–,–,–
C[C@H]1CN(c2ccc(Cl)c(Cl)c2)C(=O)c2c(C(=O)Nc3cccnc3)cnn21 [compound 26],–,–,–,–,–,–,9.08,107,0.32,5
C[C@H]1CN(c2ccc(Cl)c(Cl)c2)C(=O)c2c(C(=O)Nc3cncc(F)c3)cnn21 [compound 27],–,–,–,–,–,–,9.09,108,0.32,>10
Cc1cc(N2C[C@H](C)n3ncc(C(=O)Nc4ccccn4)c3C2=O)ccc1C(F)(F)F [compound 35],–,3.98e-09,114,227.3,> 2.5,> 10,–,–,–,–
Cc1cncc(NC(=O)c2cnn3c2C(=O)N(c2ccc(C(F)(F)F)c(C)c2)C[C@@H]3C)c1 [compound 37],–,7.24e-10,108,202.8,> 0.63,> 0.63,–,–,–,–
COc1cncc(NC(=O)c2cnn3c2C(=O)N(c2ccc(C(F)(F)F)c(C)c2)C[C@@H]3C)c1 [compound 40],–,2.14e-09,111,194.8,> 0.63,> 0.63,–,–,–,–
C[C@H]1CN(c2ccc(Cl)cc2)C(=O)c2c(C(=O)Nc3cccnc3)cnn21 [compound 41],–,6.17e-09,106,180,> 0.63,0.32,–,–,–,–
C[C@H]1CN(c2ccc(C(F)(F)F)c(Cl)c2)C(=O)c2c(C(=O)Nc3ccccn3)cnn21 [compound 46],–,2.75e-09,113,223,> 2.5,1.99,–,–,–,–
"Cc1cc(NC(=O)c2cnn3c2C(=O)N(c2ccc(Cl)c(OC(F)F)c2)C[C@@H]3C)ccn1 [compound 84, (7S)-5-[4-chloro-3-(difluoromethoxy)phenyl]-7-methyl-N-(2-methyl-4-pyridyl)-4-oxo-6,7-dihydropyrazolo[1,5-a]pyrazine-3-carboxamide]",–,7.41e-09,112,196.7,–,> 2.5,–,–,–,–
Cc1cc(NC(=O)c2cnn3c2C(=O)N(c2ccc(C(F)(F)F)cn2)C[C@@H]3C)ccn1 [compound 88],–,8.51e-09,106,244.9,–,> 2.5,–,–,–,–
C[C@H]1CN(c2ccc(C(F)(F)F)cc2)C(=O)c2c(C(=O)Nc3cnccn3)cnn21 [compound 100],–,2.95e-09,119,225,0.2,0.32,–,–,–,–
Cc1cc(NC(=O)c2cnn3c2C(=O)N(c2ccc(C(F)(F)F)c(Cl)c2)C[C@@H]3C)cc(C)n1 [compound 107],–,1.48e-09,107,–,> 0.63,> 0.63,–,–,–,–
Cc1cncc(NC(=O)c2cnn3c2C(=O)N(c2ccc(C(F)(F)F)c(Cl)c2)C[C@@H]3C)c1C [compound 126],–,1.17e-09,108,229.17,> 0.63,> 0.63,–,–,–,–
COc1cncc(NC(=O)c2cnn3c2C(=O)N(c2ccc(C(F)(F)F)c(Cl)c2)C[C@@H]3C)c1C [compound 127],–,4.07e-09,108,185.94,> 0.63,–,–,–,–,–
"Cc1c(F)cncc1NC(=O)c1cnn2c1C(=O)N(c1ccc(C(F)(F)F)c(Cl)c1)C[C@@H]2C [compound 133, (7S)-5-[3-chloro-4-(trifluoromethyl)phenyl]-N-(5-fluoro-4-methyl-3-pyridyl)-7-methyl-4-oxo-6,7-dihydropyrazolo[1,5-a]pyrazine-3-carboxamide]",–,9.12e-10,105,167.78,> 0.63,–,–,–,–,–
C[C@H]1CN(c2ccc(C(F)(F)F)cc2)C(=O)c2c(C(=O)Nc3nccs3)cnn21 [compound 140],–,9.33e-09,111,246.7,> 2.5,–,–,–,–,–
C[C@H]1CN(c2ccc(C(F)(F)F)cc2)C(=O)c2c(C(=O)Nc3ccncn3)cnn21 [compound 141],–,8.32e-09,113,224.9,> 2.5,–,–,–,–,–
COc1cncc(NC(=O)c2cnn3c2C(=O)N(c2ccc(C(F)(F)F)cc2)C[C@@H]3C)c1 [compound 144],–,4.79e-09,114,197.8,1.01,1.99,–,–,–,–
C[C@H]1CN(c2ccc(C(F)(F)F)cc2)C(=O)c2c(C(=O)Nc3cnccc3CO)cnn21 [compound 147],–,5.37e-08,103,212.57,> 0.63,–,–,–,–,–
C[C@H]1CN(c2ccc(C(F)(F)F)cc2)C(=O)c2c(C(=O)Nc3ccnc(CF)c3)cnn21 [compound 151],–,2.69e-09,115,152.64,> 0.63,–,–,–,–,–
C[C@H]1CN(c2ccc(OC(F)(F)F)c(Cl)c2)C(=O)c2c(C(=O)Nc3cccnc3)cnn21 [compound 152],–,1.05e-09,108,145.36,0.08,–,–,–,–,–
Cc1cc(NC(=O)c2cnn3c2C(=O)N(c2ccc(Cl)c(C)c2)C[C@@H]3C)cc(C)n1 [compound 160],–,3.55e-09,112,178.1,> 0.63,–,–,–,–,–
Cc1cc(N2C[C@H](C)n3ncc(C(=O)Nc4cnccn4)c3C2=O)ccc1Cl [compound 161],–,2.82e-09,108,233.4,> 0.63,–,–,–,–,–
